Results published in patent US10004803B2, “Low, immune enhancing, dose mtor inhibitors and uses thereof” (Novartis AG, priority 2013, dated 2018).
Several values for one entry are separate records, joined by “and”; a condition that tells them apart may be missing. Equal entries are not always repeated. Where two headings read alike, the source gives them in different places. Marks after values point to notes of the source that are not given here.

How the values were obtained:
[1] = biological target: mTOR (Homo sapiens, UniProt P42345); conditions: low concentration; Serra et al., 2008; cited from earlier work
[2] = system: PI3K/mTOR; conditions: relatively higher concentrations; Serra et al., 2008; cited from earlier work
[3] = system: A/H1N1 strain A/New Jersey/8/76; format: in vivo, human; conditions: for Percentage of subjects who seroconvert to heterologous strain 4 weeks after seasonal influenza vaccination: A/H1N1 strain: A/NewJersey/8/76
[4] = system: A/H1N1/California/07/2009; assay: Anti-influenza IgG and IgM levels in serum before and 4 weeks after vaccination; format: in vivo, human; conditions: all p values >0.05 by Kruskal-Wallis rank sum test
Procedure: The trial was observer-blind because the placebo in the RAD001 0.5 mg daily and 20 mg weekly cohorts differed slightly from the RAD001 tablets in those cohorts. […] The treatment duration for all cohorts was 6 weeks during which time subjects underwent safety evaluations in the clinic every 2 weeks. After subjects had been dosed for 4 weeks, RAD001 steady state levels were measured pre-dose and at one hour post dose. […] Antibody titers to the 3 influenza vaccine strains as well as to 2 heterologous strains (A/H1N1 strain A/New Jersy/8/76 and A/H3N2 strain A/Victoria/361/11) were measured by standard hemagglutination inhibition assay (Kendal, A P et al. (1982) Concepts and procedures for laboratory-based influenza surveillance. Atlanta: Centers for Disease Control and Prevention B17-B35). Levels of IgG and IgM specific for the A/H1N1/California/07/2009 were measured in serum samples taken before and 4 weeks after influenza vaccination as described previously (Spensieri, F. et al. (2013) Proc. Natl. Acad. Sci. USA 110:14330-14335). Results were expressed as fluorescence intensity.

[5] = system: H3N2 A/Victoria/210/2009; assay: Hemagglutination inhibition (HI) titers after seasonal influenza vaccination in elderly volunteers pretreated with RAD001 or placebo; format: in vivo, human
Procedure: (§1) From December 2011 to April 2012, 218 elderly volunteers were enrolled in a randomized, observer-blind, placebo-controlled trial. The subjects were randomized to treatment arms using a validated automated randomization system with a ratio of RAD001 to placebo of 5:2 in each treatment arm. The treatment arms were:
(§2) The trial was observer-blind because the placebo in the RAD001 0.5 mg daily and 20 mg weekly cohorts differed slightly from the RAD001 tablets in those cohorts. […] The treatment duration for all cohorts was 6 weeks during which time subjects underwent safety evaluations in the clinic every 2 weeks. After subjects had been dosed for 4 weeks, RAD001 steady state levels were measured pre-dose and at one hour post dose. After completing the 6 week course of study drug, subjects were given a 2 week drug free break to reverse any possible RAD001-induced immunosuppression, and then were given a 2012 seasonal influenza vaccination (Agrippal®, Novartis Vaccines and Diagnostics, Siena, Italy) containing the strains H1N1 A/California/07/2009, H3N2 A/Victoria/210/2009, B/Brisbane/60/2008. Four weeks after influenza vaccination, subjects had serum collected for influenza titer measurements. Antibody titers to the 3 influenza vaccine strains as well as to 2 heterologous strains (A/H1N1 strain A/New Jersy/8/76 and A/H3N2 strain A/Victoria/361/11) were measured by standard hemagglutination inhibition assay (Kendal, A P et al. (1982) Concepts and procedures for laboratory-based influenza surveillance. Atlanta: Centers for Disease Control and Prevention B17-B35). Levels of IgG and IgM specific for the A/H1N1/California/07/2009 were measured in serum samples taken before and 4 weeks after influenza vaccination as described previously (Spensieri, F. et al. (2013) Proc. Natl. Acad. Sci. USA 110:14330-14335). Results were expressed as fluorescence intensity.
(§3) The primary analysis of geometric mean titer ratios was done using a normal Bayesian regression model with non-informative priors. This model was fitted to each antibody titer on the log scale. The primary outcome in each model was the Day 84 measurement. The Day 63 measurement was included in the outcome vector. The model fitted using SAS 9.2 proc mixed with the prior statement. The covariance structure of the matrix was considered as unstructured (option type=UN). A flat prior was used. For the secondary analysis of seroconversion rates, logistic regression was used.
(§4) The ability of RAD001 to improve immune function in elderly volunteers was evaluated by measuring the serologic response to the 2012 seasonal influenza vaccine. The hemagglutination inhibition (HI) geometric mean titers (GMT) to each of the 3 influenza vaccine strains at baseline and 4 weeks after influenza vaccination are provided in Table 4. The primary analysis variable was the HI GMT ratio (4 weeks post vaccination/baseline). […] This endpoint was chosen because a 1.2-fold increase in the influenza GMT ratio induced by the MF-59 vaccine adjuvant was associated with a decrease in influenza illness (Iob, A et al. (2005) Epidemiol Infect 133:687-693).
(§5) Rates of seroconversion 4 weeks after influenza vaccination were also evaluated. Seroconversion was defined as the change from a negative pre-vaccination titer (i.e., HI titer <1:10) to post-vaccination HI titer≥1:40 or at least 4-fold increase from a non-negative (≥1:10) pre-vaccination HI titer.

[6] = system: H1N1 A/California/07/2009; assay: as above; format: in vivo, human
Procedure: as §1, §2, §3, §4, §5

[7] = system: B/Brisbane/60/2008; assay: as above; format: in vivo, human
Procedure: as §1, §2, §3, §4, §5

[8] = in vivo
[9] = system: A/H3N2 strain A/Victoria/361/11; assay: HI titers / seroconversion to heterologous influenza strain not contained in the vaccine; format: in vivo, human; conditions: for Percentage of subjects who seroconvert to heterologous strain 4 weeks after seasonal influenza vaccination: A/H3N2 strain: A/Victoria/361/11
[10] = system: PD-1 positive and PD-1 negative CD4 and CD8 T cells; set-up: species or system human; conditions: in vivo
[11] = Adverse event assessment in elderly volunteers; format: in vivo, human; conditions: for Treatment-related AEs: Total AE(s): N = 53
Procedure: Adverse event assessment and blood collection for hematologic and biochemical safety assessments were performed during study visits. Adverse event information was also collected in diaries that subjects filled out at home during the 6 weeks they were on study drug. Data on all adverse events were collected from the time of informed consent until 30 days after the last study visit. Events were classified by the investigators as mild, moderate or severe.
The 4 SAEs were retinal hemorrhage of the left eye with subsequent blindness in a subject with normal platelet counts who had completed a 6 week course of 5 mg weekly RAD001 6 weeks previously; severe back pain in a subject treated with placebo and severe gastroenteritis in a subject treated with placebo. The most common RAD001-related AE was mouth ulcer that, in the majority of cases, was of mild severity.

[12] = system: 3 influenza vaccine strains (H1N1, H3N2 and B); assay: Primary endpoint: HI GMT increase relative to placebo in at least 2 out of 3 influenza vaccine strains; format: in vivo, human; conditions: for primary endpoint (>=1.2-fold GMT increase relative to placebo in at least 2 out of 3 vaccine strains): ITT population
Procedure: as §4
Elderly volunteers >=65 years of age were randomized to one of the 3 RAD001 treatment groups (50 subjects per arm) or placebo (20 subjects per arm). Subjects were treated with study drug for 6 weeks, given a 2 week break, and then received influenza (Aggrippal, Novartis) and pneumoccal (Pneumovax 23, Merck), vaccinations. Response to influenza vaccination was assessed by measuring the geometric mean titers (GMTs) by hemagglutination inhibition assay to the 3 influenza strains (H1N1, H3N2 and B influenza subtypes) in the influenza vaccine 4 weeks after vaccination. The primary endpoints of the study were (1) safety and tolerability and (2) a 1.2 fold increase in influenza titers as compared to placebo in ⅔ of the influenza vaccine strains 4 weeks after vaccination. This endpoint was chosen because a 1.2 fold increase in influenza titers is associated with a decrease in influenza illness post vaccination, and therefore is clinically relevant. […] The pneumococcal vaccine contains antigens from 23 pneumococcal serotypes. Antibody titers to 7 of the serotypes were measured in our subjects.

[13] = clinical; conditions: human, in vivo
[14] = system: influenza; conditions: cited from earlier work
[15] = cited from earlier work
[16] = Intention to Treat Population, 0.5 mg
[17] = Intention to Treat Population, 5 mg
[18] = Intention to Treat Population, 20 mg
[19] = Subjects with Baseline Titers <=40, 0.5 mg
[20] = Subjects with Baseline Titers <=40, 5 mg
[21] = Subjects with Baseline Titers <=40, 20 mg

Cn1c(=O)n(-c2ccc(C(C)(C)C#N)cc2)c2c3cc(-c4cnc5ccccc5c4)ccc3ncc21 [BEZ235, 2-methyl-2-[4-(3-methyl-2-oxo-8-quinolin-3-yl-2,3-dihydro-imidazo[4,5-c]quinolin-1-yl)-phenyl]-propionitrile]
concentration at which mTOR inhibition predominates [1]: less than 100 nmol/L | concentration giving dual PI3K/mTOR inhibition [2]: approximately 500 nmol/L

CO[C@H]1C[C@@H]2CC[C@@H](C)[C@@](O)(O2)C(=O)C(=O)N2CCCC[C@H]2C(=O)O[C@H]([C@H](C)C[C@@H]2CC[C@@H](OCCO)[C@H](OC)C2)CC(=O)[C@H](C)/C=C(\C)[C@@H](O)[C@@H](OC)C(=O)[C@H](C)C[C@H](C)/C=C/C=C/C=C/1C [RAD001, (1R,9S,12S,15R,16E,18R,19R,21R,23 S,24E,26E,28E,30S,32S,35R)-1,18-dihydroxy-12-{(1R)-2-[(1 S,3R,4R)-4-(2-hydroxyethoxy)-3-methoxycyclohexyl]-1-methylethyl}-19,30-dimethoxy-15,17,21,23,29,35-hexamethyl-11,36-dioxa-4-aza-tricyclo[30.3.1.04,9]hexatriaconta-16,24,26,28-tetraene-2,3,10,14,20-pentaone]
increase in HI GMT ratio for heterologous strain as compared to placebo ([3]; 4 weeks after vaccination): higher | Percentage of subjects who seroconvert to heterologous strain 4 weeks after seasonal influenza vaccination ([3]; RAD001 5 mg weekly): 16% | Percentage of subjects who seroconvert to heterologous strain 4 weeks after seasonal influenza vaccination ([3]; RAD001 20 mg weekly): 8% | change from baseline to 4 weeks post vaccination in anti-H1N1 influenza IgG and IgM levels versus placebo [4]: No significant difference | Percent of subjects with seroconversion to influenza 4 weeks after vaccination [5, 16]: 27% | Percent of subjects with seroconversion to influenza 4 weeks after vaccination [5, 17]: 24% | Percent of subjects with seroconversion to influenza 4 weeks after vaccination [5, 18]: 25% | Percent of subjects with seroconversion to influenza 4 weeks after vaccination [5, 19]: 64% | Percent of subjects with seroconversion to influenza 4 weeks after vaccination [5, 20]: 53% | Percent of subjects with seroconversion to influenza 4 weeks after vaccination [5, 21]: 71% | Percent of subjects with seroconversion to influenza 4 weeks after vaccination [6, 16]: 27% | Percent of subjects with seroconversion to influenza 4 weeks after vaccination [6, 17]: 27% | Percent of subjects with seroconversion to influenza 4 weeks after vaccination [6, 18]: 17% | Percent of subjects with seroconversion to influenza 4 weeks after vaccination [6, 19]: 42% | Percent of subjects with seroconversion to influenza 4 weeks after vaccination [6, 20]: 45% | Percent of subjects with seroconversion to influenza 4 weeks after vaccination [6, 21]: 36% | Percent of subjects with seroconversion to influenza 4 weeks after vaccination [7, 16]: 27% | Percent of subjects with seroconversion to influenza 4 weeks after vaccination [7, 17]: 22% | Percent of subjects with seroconversion to influenza 4 weeks after vaccination [7, 18]: 19% | Percent of subjects with seroconversion to influenza 4 weeks after vaccination [7, 19]: 40* Percent | Percent of subjects with seroconversion to influenza 4 weeks after vaccination [7, 20]: 33% | Percent of subjects with seroconversion to influenza 4 weeks after vaccination [7, 21]: 28% | trough level of study dosing regimens relative to approved transplant and oncology regimens ([8]; human): 3-20 fold lower | average RAD001 trough level [8]: below detection limits | increase in HI GMT ratio for heterologous strain as compared to placebo ([9]; 4 weeks after vaccination): higher | Percentage of subjects who seroconvert to heterologous strain 4 weeks after seasonal influenza vaccination ([9]; RAD001 0.5 mg daily): 38% | Percentage of subjects who seroconvert to heterologous strain 4 weeks after seasonal influenza vaccination ([9]; RAD001 5 mg weekly): 39%* | Percentage of subjects who seroconvert to heterologous strain 4 weeks after seasonal influenza vaccination ([9]; RAD001 20 mg weekly): 40%* | H3N2 heterologous strain seroconversion rate ([9]; pooled RAD001 cohorts, versus 20% for placebo (p=0.007)): 39% | decrease in PD-1-positive CD4 T cells as compared to the placebo cohort [10]: −37.1-−28.5% | decrease in PD-1-positive CD8 T cells as compared to the placebo cohort [10]: −43.3-−38.5% | decrease in PD-1 positive CD4 T cells compared to placebo cohort [10]: 30.2% and 32.7% | decrease in PD-1 positive CD8 T cells compared to placebo cohort [10]: 37.4% and 41.4% | increase in PD-1-negative CD4 T cells as compared to the placebo cohort [10]: 3.0-4.9% | percentage of CD4 PD-1 positive T cells versus baseline [10]: decreased from baseline | percentage of CD8 PD-1 positive cells versus baseline [10]: decreased from baseline | significant differences in the percentages of naïve lymphocytes versus placebo [10]: not detected | Treatment-related AEs: Total AE(s) ([11]; RAD001 0.5 mg daily): 35 n (%) | Treatment-related AEs: Total AE(s) ([11]; RAD001 5 mg weekly): 46 n (%) | Treatment-related AEs: Total AE(s) ([11]; RAD001 20 mg weekly): 109 n (%) | deaths during the study ([11]; elderly volunteers, 6 week treatment): No deaths occurred | severe AEs assessed as related to RAD001 ([11]; mouth ulcers in a subject treated with 20 mg weekly): Only one severe AE | primary endpoint (>=1.2-fold GMT increase relative to placebo in at least 2 out of 3 vaccine strains) ([12]; 0.5 mg daily or 5 mg weekly): met the GMT primary endpoint | primary endpoint (>=1.2-fold GMT increase relative to placebo in at least 2 out of 3 vaccine strains) ([12]; 20 mg weekly): but not higher dose (20 mg weekly) cohort met the primary endpoint | RAD001 concentration versus increase in titer to each influenza vaccine strain ([12]; RAD001 concentration 1 hour post dose after 4 weeks dosing): inverse exposure/response relationship | increase in influenza titers in subjects with low baseline titers versus ITT population ([12]; subset with baseline influenza titers <=1:40): greater RAD001-associated increase in titers | concentration at 4 weeks ([13]; 0.5 mg daily): 0.9 ng/mL | concentration at 4 weeks ([13]; 5 mg weekly): < 0.3 ng/mL | concentration at 4 weeks ([13]; 20 mg weekly): 0.7 ng/mL

CO[C@H]1C[C@@H]2CC[C@@H](C)[C@@](O)(O2)C(=O)C(=O)N2CCCC[C@H]2C(=O)O[C@H]([C@H](C)C[C@@H]2CC[C@@H](O)[C@H](OC)C2)CC(=O)[C@H](C)/C=C(\C)[C@@H](O)[C@@H](OC)C(=O)[C@H](C)C[C@H](C)/C=C/C=C/C=C/1C [rapamycin]
response to influenza vaccination ([14]; elderly mice, 6 weeks of treatment): improved response to influenza vaccination | serologic response to influenza as compared to placebo ([14]; mice vaccinated against influenza in the presence of rapamycin): broader serologic response to influenza | lifespan ([15]; mice): extend lifespan | spontaneous physical activity ([15]; old mice): increases spontaneous physical activity
